Measured values: ChEMBL document CHEMBL5029185, “Discovery of Novel Polycyclic Heterocyclic Derivatives from Evodiamine for the Potential Treatment of Triple-Negative Breast Cancer” (J Med Chem, 2021)
Active and inactive are the calls of the source. No cut-off for these calls is given here.

Legend:
[1] = molecular target: T1, DNA topoisomerase 1 (Homo sapiens) (UniProt P11387); experiment: Induction of topoisomerase 1-DNA cleavable complex in human MDA-MB-231 cells assessed as decrease in free Top1 in nuclear extract at 30 uM measured up to 9 hrs by Immunoband depletion assay; type: cell-based; settings: time hrs <=9
T1 sequence (whole entry): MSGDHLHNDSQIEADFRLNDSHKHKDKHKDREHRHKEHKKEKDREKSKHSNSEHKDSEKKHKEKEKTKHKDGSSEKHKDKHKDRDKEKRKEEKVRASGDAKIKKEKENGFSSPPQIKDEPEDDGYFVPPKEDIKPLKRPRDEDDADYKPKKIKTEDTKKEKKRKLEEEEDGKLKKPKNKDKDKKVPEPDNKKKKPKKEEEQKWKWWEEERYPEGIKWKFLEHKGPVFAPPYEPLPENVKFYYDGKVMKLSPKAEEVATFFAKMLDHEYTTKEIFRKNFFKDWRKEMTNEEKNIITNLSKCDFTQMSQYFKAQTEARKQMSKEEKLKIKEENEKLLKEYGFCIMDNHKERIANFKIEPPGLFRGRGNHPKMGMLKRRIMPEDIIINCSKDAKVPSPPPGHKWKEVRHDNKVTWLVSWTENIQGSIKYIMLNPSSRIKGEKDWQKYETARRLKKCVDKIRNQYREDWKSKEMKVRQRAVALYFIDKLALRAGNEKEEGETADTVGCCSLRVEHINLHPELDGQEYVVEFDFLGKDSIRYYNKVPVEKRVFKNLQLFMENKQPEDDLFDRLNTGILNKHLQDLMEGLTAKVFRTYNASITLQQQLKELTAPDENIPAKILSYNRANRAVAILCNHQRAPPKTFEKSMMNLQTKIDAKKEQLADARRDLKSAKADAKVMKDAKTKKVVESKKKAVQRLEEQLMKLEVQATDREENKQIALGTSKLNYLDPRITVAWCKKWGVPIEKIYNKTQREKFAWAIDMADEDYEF

MDA-MB-231 [2] = experiment: Induction of apoptosis in human MDA-MB-231 cells assessed as changes in cell morphology and nuclei at 0.1 to 0.4 uM by Hoechst 33342 staining based fluorescence microscopy; type: functional; settings: dose 0.1-0.4 µM
[3] = Selectivity index, ratio of IC50 for human MCF-10A cells to IC50 for human MDA-MB-231 cells; settings: MCF-10A cells versus MDA-MB-231 cells
[4] = molecular target: DNA topoisomerase 2-alpha (Homo sapiens) (UniProt P11388); experiment: Inhibition of topoisomerase 2 (unknown origin) assessed as relaxation of supercoiled kDNA at 100 to 500 uM incubated for 30 mins by agarose gel electrophoresis; settings: dose 100-500 µM
H22 = experiment: Antiproliferative activity against mouse H22 cells assessed as inhibition rate incubated for 72 hrs by MTT assay; type: functional, cell-based; settings: H22, 72 h
MDA-MB-231 [5] = experiment: Inhibition of PI3K in human MDA-MB-231 cells assessed as Akt phosphorylation at 0.4 uM measured after 48 hrs by Western blot analysis; type: cell-based
Breast carcinoma cell [6] = experiment: Antitumour activity against human TNBC breast carcinoma cell tissue xenografted PDTX SCID mouse model assessed as reduction in cancer cell density at 5 to 20 mg/kg treated for 7 days; type: functional, organism-based; settings: dose 5-20 mg/kg, time 7.0 day
MDA-MB-231 [7] = experiment: Induction of apoptosis in human MDA-MB-231 cells assessed as increase in cleaved PARP level at 0.4 uM incubated for 48 hrs by Western blot analysis; type: functional, cell-based
MDA-MB-231 [8] = experiment: Induction of DNA damage in human MDA-MB-231 cells assessed as ROS-mediated oxidative DNA lesions at 0.4 uM measured after 12 hrs by alkaline comet assay; type: functional, cell-based
MDA-MB-231 [9] = experiment: Induction of apoptosis in human MDA-MB-231 cells assessed as increase in cytochrome c expression at 0.1 to 0.4 uM measured after 48 hrs by Western blot analysis; type: functional, cell-based; settings: dose 0.1-0.4 µM
MDA-MB-231 [10] = experiment: Induction cell cycle arrest in human MDA-MB-231 cells assessed as increase in p21 expression at 0.4 uM measured after 48 hrs by Western blot analysis; type: functional, cell-based
HEK293 = experiment: cells; type: ADME, cell-based; settings: Homo sapiens, HEK293, 72 h
Description: Antiproliferative activity against HEK293 cells assessed as inhibition rate incubated for 72 hrs by MTT assay

MDA-MB-231 [11] = experiment: Induction of mitochondrial membrane disruption in human MDA-MB-231 cells assessed as mitochondrial dysfunction at 0.1 uM measured after 48 hrs by JC-1 staining based flow cytometry (reference value: 3%); type: functional
MDA-MB-231 [12] = experiment: Antiproliferative activity against human MDA-MB-231 cells transfected with siRNA-Top1 assessed as cell viability by MTT assay; type: functional, cell-based
[13] = molecular target: T1, DNA topoisomerase 1 (Homo sapiens); experiment: Inhibition of topoisomerase 1 (unknown origin) assessed as relaxation of supercoiled plasmid pBR322 DNA at 20 uM incubated for 15 mins by agarose gel electrophoresis
MDA-MB-231 [14] = experiment: Antiproliferative activity against human MDA-MB-231 cells assessed as inhibition rate incubated for 72 hrs by MTT assay; type: functional, cell-based; settings: MDA-MB-231, 72 h
MDA-MB-231 [15] = experiment: Antiproliferative activity against human MDA-MB-231 cells assessed as inhibition rate at 10 uM incubated for 72 hrs by MTT assay; type: functional
[16] = molecular target: T1, DNA topoisomerase 1 (Homo sapiens); experiment: Inhibition of topoisomerase 1 (unknown origin) assessed as relaxation of supercoiled plasmid pBR322 DNA at 50 uM incubated for 15 mins by agarose gel electrophoresis
MDA-MB-231 [17] = experiment: Induction cell cycle arrest in human MDA-MB-231 cells assessed as accumulation at S phase at 0.2 uM measured after 48 hrs by PI staining based flow cytometry (reference value: 36%); type: functional
[18] = molecular target: T1, DNA topoisomerase 1 (Homo sapiens); experiment: Inhibition of topoisomerase 1 (unknown origin) assessed as relaxation of supercoiled plasmid pBR322 DNA upto 500 uM incubated for 15 mins by agarose gel electrophoresis; settings: dose microM <=500, time 15.0 min
MDA-MB-231 [19] = experiment: Antiproliferative activity against human MDA-MB-231 cells assessed as inhibition rate at 1 uM incubated for 72 hrs by MTT assay; type: functional
MDA-MB-231 [20] = experiment: Induction of apoptosis in human MDA-MB-231 cells assessed as increase in cleaved caspase-3 expression at 0.1 to 0.4 uM measured after 48 hrs by Western blot analysis; type: functional, cell-based; settings: dose 0.1-0.4 µM
MDA-MB-231 [21] = experiment: Induction of apoptosis in human MDA-MB-231 cells assessed as increase in Bax expression at 0.1 to 0.4 uM measured after 48 hrs by Western blot analysis; type: functional, cell-based; settings: dose 0.1-0.4 µM
MCF-10A = experiment: cells; type: ADME, cell-based; settings: Homo sapiens, 72 h
Description: Antiproliferative activity against human MCF-10A cells assessed as inhibition rate incubated for 72 hrs by MTT assay

MCF7 = experiment: Antiproliferative activity against human MCF7 cells assessed as inhibition rate incubated for 72 hrs by MTT assay; type: functional, cell-based; settings: MCF7, 72 h
Breast carcinoma cell [22] = experiment: Antitumour activity against human TNBC breast carcinoma cell tissue xenografted PDTX SCID mouse model assessed as reduction in Ki67 expression level at 5 to 20 mg/kg treated for 7 days by immunohistochemical analysis; type: functional, organism-based; settings: dose 5-20 mg/kg, time 7.0 day
MDA-MB-231 [23] = experiment: Induction of ROS generation in human MDA-MB-231 cells transfected with siRNA-Top1 by fluorescent dye […] based flow cytometry; type: functional, cell-based

Sequence of DNA topoisomerase 2-alpha (Homo sapiens) (P11388 whole entry): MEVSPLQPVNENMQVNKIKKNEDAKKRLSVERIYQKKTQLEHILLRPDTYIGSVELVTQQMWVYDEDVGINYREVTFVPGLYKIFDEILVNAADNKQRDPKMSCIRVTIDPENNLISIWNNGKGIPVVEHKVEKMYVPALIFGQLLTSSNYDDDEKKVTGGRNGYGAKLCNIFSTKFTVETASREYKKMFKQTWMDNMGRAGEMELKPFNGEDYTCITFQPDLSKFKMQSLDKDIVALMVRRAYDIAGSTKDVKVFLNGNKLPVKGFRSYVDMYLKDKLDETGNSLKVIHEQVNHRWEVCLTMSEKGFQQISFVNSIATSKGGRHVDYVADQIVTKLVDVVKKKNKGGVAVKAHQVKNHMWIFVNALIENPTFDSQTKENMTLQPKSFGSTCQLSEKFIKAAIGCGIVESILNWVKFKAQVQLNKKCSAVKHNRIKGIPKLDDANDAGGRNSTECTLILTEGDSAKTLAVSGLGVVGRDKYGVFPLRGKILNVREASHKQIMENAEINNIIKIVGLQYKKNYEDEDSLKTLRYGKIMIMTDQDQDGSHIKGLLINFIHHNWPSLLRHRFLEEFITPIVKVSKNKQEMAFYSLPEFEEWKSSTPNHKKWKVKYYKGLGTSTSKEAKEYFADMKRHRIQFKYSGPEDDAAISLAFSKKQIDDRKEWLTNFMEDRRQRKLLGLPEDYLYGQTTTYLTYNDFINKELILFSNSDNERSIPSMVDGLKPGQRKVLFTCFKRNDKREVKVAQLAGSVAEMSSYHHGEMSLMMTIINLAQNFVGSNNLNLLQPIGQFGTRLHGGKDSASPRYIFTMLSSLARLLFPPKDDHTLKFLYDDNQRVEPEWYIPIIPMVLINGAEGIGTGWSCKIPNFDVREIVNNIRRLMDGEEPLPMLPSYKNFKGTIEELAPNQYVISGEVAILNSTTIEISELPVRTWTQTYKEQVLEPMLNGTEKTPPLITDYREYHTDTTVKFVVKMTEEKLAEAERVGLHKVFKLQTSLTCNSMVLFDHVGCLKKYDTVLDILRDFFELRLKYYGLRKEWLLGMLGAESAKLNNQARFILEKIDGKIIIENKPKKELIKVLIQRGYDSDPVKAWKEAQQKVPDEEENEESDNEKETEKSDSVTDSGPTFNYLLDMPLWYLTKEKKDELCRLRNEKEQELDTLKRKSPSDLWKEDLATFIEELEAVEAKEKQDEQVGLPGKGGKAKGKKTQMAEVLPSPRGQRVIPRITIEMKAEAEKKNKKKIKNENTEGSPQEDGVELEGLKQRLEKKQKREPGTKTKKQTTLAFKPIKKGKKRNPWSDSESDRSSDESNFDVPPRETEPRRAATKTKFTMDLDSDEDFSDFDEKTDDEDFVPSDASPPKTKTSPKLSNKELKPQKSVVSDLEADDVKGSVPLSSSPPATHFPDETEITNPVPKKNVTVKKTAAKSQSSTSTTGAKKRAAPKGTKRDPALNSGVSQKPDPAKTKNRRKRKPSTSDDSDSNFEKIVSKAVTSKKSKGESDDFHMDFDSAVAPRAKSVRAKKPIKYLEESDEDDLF

In the case of O=C1c2cc(Cl)ccc2OC2c3oc4ccc(O)cc4c3CCN12 (configuration not stated), the Activity [1] is reported as “Active”, the Activity (MDA-MB-231 [2]) is reported as “Active” and the selectivity ratio [3] is reported as 18.8. For the same compound, the inhibition [4] was “inactive”, the IC50 (H22) was 1.02 µM and the inhibition (MDA-MB-231 [5]) was “Active”. For the same compound, the Activity (Breast carcinoma cell [6]) was “Active”, the Activity (MDA-MB-231 [7]) was “Active” and the Activity (MDA-MB-231 [8]) was “Active”. For the same compound, the Activity (MDA-MB-231 [9]) was “Active”, the Activity (MDA-MB-231 [10]) was “Active” and the IC50 (HEK293) was 35.5 µM. The Activity (MDA-MB-231 [11]) was 12.2%, the IC50 (MDA-MB-231 [12]) was 9.7 µM and the inhibition [13] was “Active”. The IC50 (MDA-MB-231 [14]) was 0.36 µM, the inhibition at 10 µM (MDA-MB-231 [15]) was 84.3% and the inhibition [16] was “Active”. The Activity (MDA-MB-231 [17]) was 22.4%, the Activity [18] was “inactive” and the inhibition at 1 µM (MDA-MB-231 [19]) was 82.4%. For the same compound, the Activity (MDA-MB-231 [20]) was “Active”, the Activity (MDA-MB-231 [21]) was “Active” and the IC50 (MCF-10A) was 6.76 µM. For the same compound, the IC50 (MCF7) was 0.62 µM, the Activity (Breast carcinoma cell [22]) was “Active” and the Activity (MDA-MB-231 [23]) was “Active”.
